# Measurements published in US7220740B2, “1,4-diazabicyclo[3.2.2]nonabenzoxazole, -benzothiazole and benzimidazole derivatives, preparation and therapeutic use thereof” (Sanofi-aventis, priority 2000, dated 2007).
smiles,measurement,value
O=[N+]([O-])c1ccc2oc(N3CCN4CCC3CC4)nc2c1,melting point,158 to 160 °C
